# From patent publication US20100035848A1, “THERAPY FOR DISORDERS OF THE PROXIMAL DIGESTIVE TRACT” (priority 2008, published 2010)
# How the values were obtained:
# [1] = system: NF-κB dependent transcription; test: In vivo imaging of basal NF-κB dependent transcription in NF-κB::Luc reporter mice; set-up: species or system mouse; settings: male NF-κB::Luc mice, 4 hours, FIG. 2
# Protocol: GL1001 was tested for in vivo anti-inflammatory activity by examining its effects on basal levels of NF-κB dependent transcription in mice engineered in the germline with a construct containing an NF-κB enhancer linked to a luciferase gene (i.e., NF-κB::Luc mice), such that this NE-κB reporter construct is present in all cells of the mice.
# More particularly, transgenic NF-κB::Luc mice were generated using three NF-κB response elements from the Igκ light chain promoter fused to a firefly luciferase gene as described by Carlsen et al. (2002) J. Immunol. 168:1441-1446. Pronuclear microinjection of purified construct DNA was used to generate transgenic founders in the C57BL/6 XCBA/J background. Founders were subsequently back-crossed to the C57BL/6 albino background. […] Signal data were also quantitated and archived using the Living Image® software. Photons of light were quantitated using an oval region of interest (ROI) of varying sizes depending on the procedure, as described further below.
# To test for in vivo effects of GL1001 on basal levels of NF-κB dependent transcription, male NF-κB::Luc mice were subjected to quantitative in vivo imaging of the abdominal area (using a fixed ROT of 2.76×3.7 cm) as described above, immediately before, and at 2, […]
# [2] = system: LPS-induced NF-κB-dependent transcription; test: Luciferase assay of organs extracted from LPS-treated NF-κB::Luc mice; assay type: in vivo, mouse
# Description: For luciferase assays, organs were extracted and snap-frozen in liquid nitrogen. All tissue samples were placed in lysis buffer with inhibitors (Passive Lysis Buffer (Promega) and Complete Mini Protease Inhibitor Cocktail (Roche, Indianapolis, Ind.)), and were homogenized using a Handishear hand-held tissue homogenizer (VirTis, Gardiner, N.Y.). Tissue homogenates were centrifuged and clarified lysates were used for luminometer assays and western blots. For the luminometer assays, Luciferase Assay Substrate (Luciferase Assay System, Promega) was prepared as indicated by the manufacturer and placed in disposable cuvettes. […] Background luminescence readings were obtained and the background readings were subtracted from the luminescent data. Protein concentrations were determined using the BCA Protein Assay Kit (Pierce, Rockford, Ill.) following the manufacturer's protocols and analyzed using a VERSAmax tunable microplate reader and associated Softmax Pro version 3.1.2 software (Molecular Devices, Sunnyvale Calif.). The luminescence for each of the protein lysates was calculated as arbitrary units of light per microgram of protein. […]
# GL1001 was further tested for in vivo anti-inflammatory activity by examining its effects on bacterial LPS-induced NF-κB dependent transcription in NF-κB::Luc mice. […] Luciferase signal was quantitated from several regions of interest. […]
# ACE2 = biological target: T1, ACE2 (Rattus norvegicus, UniProt Q5EGZ1); test: Stomach tissue homogenates spiked with excess GL1001, ACE2 fluorescence assay; assay type: biochemical
# T1 construct: from tissue; host or cells: rat stomach (excluding forestomach) homogenate
# T1 sequence (Q5EGZ1 18-805): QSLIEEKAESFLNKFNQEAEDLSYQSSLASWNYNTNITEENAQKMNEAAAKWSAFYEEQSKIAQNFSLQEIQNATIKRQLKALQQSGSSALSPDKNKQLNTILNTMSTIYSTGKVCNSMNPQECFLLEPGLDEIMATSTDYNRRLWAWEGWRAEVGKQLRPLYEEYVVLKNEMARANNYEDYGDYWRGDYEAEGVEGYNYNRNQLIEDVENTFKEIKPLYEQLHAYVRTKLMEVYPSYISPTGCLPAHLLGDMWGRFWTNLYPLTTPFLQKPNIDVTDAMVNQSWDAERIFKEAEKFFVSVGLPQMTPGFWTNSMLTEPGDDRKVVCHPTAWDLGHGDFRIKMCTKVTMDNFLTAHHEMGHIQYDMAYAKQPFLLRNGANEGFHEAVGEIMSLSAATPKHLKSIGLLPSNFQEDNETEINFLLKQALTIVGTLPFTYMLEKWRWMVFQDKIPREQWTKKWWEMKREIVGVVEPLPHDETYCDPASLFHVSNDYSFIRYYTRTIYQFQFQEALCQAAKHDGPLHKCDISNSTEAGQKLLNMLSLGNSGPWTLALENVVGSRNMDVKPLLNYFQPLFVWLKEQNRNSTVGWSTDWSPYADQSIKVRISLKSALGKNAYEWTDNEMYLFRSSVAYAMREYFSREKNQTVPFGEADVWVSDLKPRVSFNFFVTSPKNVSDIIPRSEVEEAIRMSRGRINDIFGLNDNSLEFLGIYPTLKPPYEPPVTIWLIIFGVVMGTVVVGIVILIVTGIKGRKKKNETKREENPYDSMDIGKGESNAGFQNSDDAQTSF
# Protocol: Three hours after diclofenac treatment, all animals were sacrificed and stomachs were removed and imaged to determine the severity of gastric damage. Additionally, stomach tissue samples were taken to assess disease activity and pharmacodynamic effects. Gastric damage scores were determined from photographic images (Ma & Wallace (2003) Am. J. Physiol. Gastrointest. Liver Physiol. 279; 341-346). Removed stomachs were opened along the greater curvature, pinned out on a wax block, and photographed along a 25 mm ruler reference with a digital 35 mm camera. The lesion area was then determined using enlarged images and computer software (www.scioncorp.co/pages/scion_image_windows.htm) that allows superimposed drawing of the perimeter of a wound and calculation of the area based on the ruler reference. Stomach samples (excluding forestomach) were used for measurements of PGE2 concentration, MPO activity and ACE2 activity. […] Concentration of PGE2 from stomach tissue samples was performed as described by Souza et al. (2003), supra, and quantification was obtained by LC-MS. […] Last, the extent of inhibition of ACE2 activity was determined to establish whether GL1001 was effective in inhibiting its ACE2 target in stomach tissues. […]
structure (smiles),measurement,setting,value
"CC(C)C[C@H](N[C@@H](Cc1cncn1Cc1cc(Cl)cc(Cl)c1)C(=O)O)C(=O)O [GL1001, (S,S)-2-[1-carboxy-2-[3-(3,5-dichlorobenzyl)-3H-imidazol-4-yl]-ethylamino]-4-methylpentanoic acid]",inhibition of basal in vivo levels of NF-κB dependent transcription in abdominal ROI,"[1]; 300 mg/kg s.c., p<0.01",over 40%
same,inhibition of basal in vivo levels of NF-κB dependent transcription in abdominal ROI,[1]; both lower doses s.c.,lesser but still significant extents
same,reduction of LPS-induced NF-κB-dependent transcription in stomachs,"[2]; 0.5 mg/kg LPS and GL1001 30 mg/kg vs LPS alone, FIG. 5",about 37 fold
same,decrease in LPS-induced NF-κB signaling in other organs,"[2]; 0.5 mg/kg LPS and GL1001 30 mg/kg, pancreas, uterus, liver, kidney, spleen, small and large intestine, lymph nodes, cecum, ovary, brain, heart, lung",no statistically significant decrease
same,further inhibition of ACE2 on spiking,ACE2; tissue samples of Group C (dosed in vivo with GL1001) spiked with excess GL1001,no further inhibition
same,decrease in the fluorescence signal (ACE2 specific activity),ACE2; tissue samples of Groups A and B spiked with vast excess of GL1001 (>IC90),40-50%
